In patent US9883691B2, “Food and beverage products containing 1,3-propanediol and methods of modifying flavor release using 1,3-propanediol” (Kraft Foods Group Brands LLC, priority 2012, dated 2018):

Experiments:
[1] = PTR-MS headspace release from stored beverages, water/solvent experiment (Example 4); format: physicochemical; conditions: beverage stored refrigerated; 1.5, 24, 48 and 72 hours; Tukey-Kramer
Method: 0.86 grams of the flavor concentrate was then added to 100 grams of either propylene glycol or 1,3-propanediol to provide diluted concentrates. […].
The beverages were then stored in sealed containers in a refrigerator. The container was opened five times over the course of the experiment and therefore represented a beverage in a sealed container being opened for multiple uses. 15 gram samples were weighed into a 4 ounce cup and analyzed at 1.5 hours, 24 hours, 48 hours, and 72 hours after storage.
The samples were analyzed in triplicate by PTR-MS as described below to determine impact of 1,3-propanediol or propylene glycol on release of the flavors from the beverage. The PTR-MS was performed as follows. A sampling apparatus was needed in conjunction with the PTR-MS inlet to prevent variations caused by headspace kinetics. The sampling apparatus used includes a 4 ounce sample vessel equipped with a 2-hole lid which may be sealed by an adhesive film to allow equilibration. […]. The holes were equal sized (˜2 mm diameter) and match the outer diameter of the PTR-MS inlet line. The flow of the dilution gas into the vessel was regulated by the vacuum and proportional valve of the PTR-MS inlet system. […] The 2 holes in the lid were equidistant from the edge of the vessel (˜20 mm) and ˜30 mm from each other. The PTR-MS inlet was braced by clamps in a fixed position vertically above the laboratory bench (˜55 mm) and a silicone rubber depth gauge was affixed to the PTR-MS inlet tubing and set at 18 mm. The PTR-MS inlet was consistently oriented in a vertical position […] below the inside lid of the vessel and 19 mm above the sample in the vessel. The sample vessel was then held in place during sampling according to the depth gauge on the inlet line and the vessel was subsequently supported on the bench by a 10 mm plastic spacer.
15 grams of the sample to be tested (e.g., food or beverage product containing 1,3-propanediol) are added to the vessel and the vessel is sealed and allowed to equilibrate at room temperature (˜22° C.) for 90 minutes. At the time of sampling, the seal was removed from both the sampling hole and the dilution gas hole in the lid and the vessel was immediately affixed to the PTR-MS inlet via the sampling hole. The real-time released flavor was measured from the headspace of the sample vessel for two minutes (according to the conditions listed in Table 1 above).
The data was analyzed using PTR-MS Viewer, Version 3.0.0.101 (Ionicon Analytik G.m.b.H). The point of maximum intensity for each compound of interest was determined and recorded according to the PTR-MS Viewer software. The maximum intensity in counts over the timescale for each compound of interest was used for data analysis as it reflected the static equilibrium headspace concentration in the system at the moment of seal removal. Due to the necessity of a dilution gas, the volatile concentration decreased over time as the compounds of interest re-equilibrated to a state of dynamic equilibrium in the headspace.
The statistical differences were determined by Tukey-Kramer Honest […]. […].

[2] = not marked (est); cited from earlier work

SMILES | effect of 1,3-propanediol on flavor release relative to propylene glycol, water/solvent [1] | logP (o/w) [2]
CCCC(=O)OCC [Ethyl butyrate] | little effect | –
CC=O [Acetaldehyde] | released faster in propylene glycol | −0.16
O=Cc1ccccc1 [Benzaldehyde] | significantly suppressed release | –
